These results are taken from patent US20040219186A1, “Expandable gastric retention device” (priority 2001, published 2004).

Converted amounts (≈) assume the structure as drawn. Where two headings read alike, the source gives them in different places.

For series [1] the following is noted: in vivo; cited from earlier work.
A further series deals with Strep. pneumococci. The note with it: cited from earlier work.
Series [2] in a line: Hydrochlorothiazide 50 mg bio-study, IR versus GRD, urinary drug excretion, urine output and side effects, fasting subjects. The series is classed as in vivo. The following applies: both sexes, human, oral, HCTZ 50 mg, read-out: Elimination half-life (t1/2) (converted). The procedure:
Two formulations for hydrochlorothiazide (an immediate release formulation (IR) and a gastric retention device (GRD)) containing sustained release formulations (SR) were administered in the bio-study (bioavailability study). A commercial tablet containing 50 mg of HCTZ was used as an IR control, and spray-coated beads equivalent to 50 mg of HCTZ were formulated for SR in the lab. The process of SR formulation is described above. Bio-study was performed to evaluate the bioavailability as well as pharmacodynamics of HCTZ from a GRD compared to those from an IR.
Monitoring concentrations of hydrochlorothiazide in the urine of healthy adult volunteers allowed comparison of the relative bioavailability of hydrochlorothiazide from the GRD formulation and from a conventional tablet. Participation involved at least two days for each treatment with at least 72-hours washout period between doses. An IR was given once and the GRD was repeated twice to test the reproducibility of the new dosage form, GRD. A 50 mg dose of was chosen for the study because it was in the range of the recommended dose from the PDR (Physician's Desk References) and it produced concentrations high enough to make HPLC analysis efficient. Six subjects participated in the study, 4 healthy males and 2 healthy females. […] The volume of urine collected was measured in order to calculate total amount of drug recovered. […]

For `CC1(C)S[C@@H]2[C@H](NC(=O)[C@H](N)c3ccc(O)cc3)C(=O)N2[C@H]1C(=O)O` [Amoxicillin], in series [1], the half-life result was “about 1 hour”. In addition, the minimum inhibitory concentration (MIC) (usually the least concentration at which growth counts as inhibited) in the series with Strep. pneumococci was 0.02 µg/mL (≈ 0.0547 µM).

Regarding `NS(=O)(=O)c1cc2c(cc1Cl)NCNS2(=O)=O` [hydrochlorothiazide], the half-life in series [2] was ~7 h.
